The record followed here is patent US12606540B2, “Triazolone compound” (MEDSHINE DISCOVERY INC., priority 2020, dated 2026).

Assay [1] addresses T1, JAK2(h) (Homo sapiens, UniProt O60674).
T1 construct: purchased Eurofins (KinaseProfiler platform)
As to the kind of experiment: Eurofins KinaseProfiler kinase selectivity. It counts as biochemical. The conditions noted are these: compound at 1 μM; ATP 45 μM; read-out: Residual enzyme activity. The procedure: (§1) This experiment aims to study the activity and selectivity of the compounds towards kinases selected from the Eurofins KinaseProfiler™ platform. The compounds against each selected kinase were tested using the KinaseProfiler™ experimental procedure of Eurofins standard, which follows the relevant standard operating procedures. Protein kinases (except ATM(h) and DNA-PK(h)) were tested by […], while lipid kinases, ATM(h), ATR/ATRIP(h) and DNA-PK(h) were tested by HRTF®.
(§2) Compound powders were prepared into 10 mM mother liquor through 100% DMSO solution and then diluted to 50× liquid.
(§3) An appropriate amount of 50× storage solution of the test compound was taken into the test wells, and then the kinase and substrate were added and mixed well. A certain concentration of ATP was added to start the reaction.
(§4) Data were processed using custom in-house analysis software.
(§5) The kinase off-target study in vitro of compound 5 of the present disclosure was carried out to evaluate the inhibitory activity against 15 common kinases at a concentration of 1 μM of the drug, and the results are as shown in Table 6.

The target of assay [2] is T2, CDK1/cyclinB(h) (Homo sapiens, UniProt P06493).
T2 construct: purchased Eurofins (KinaseProfiler platform)
T2 sequence (P06493 whole entry): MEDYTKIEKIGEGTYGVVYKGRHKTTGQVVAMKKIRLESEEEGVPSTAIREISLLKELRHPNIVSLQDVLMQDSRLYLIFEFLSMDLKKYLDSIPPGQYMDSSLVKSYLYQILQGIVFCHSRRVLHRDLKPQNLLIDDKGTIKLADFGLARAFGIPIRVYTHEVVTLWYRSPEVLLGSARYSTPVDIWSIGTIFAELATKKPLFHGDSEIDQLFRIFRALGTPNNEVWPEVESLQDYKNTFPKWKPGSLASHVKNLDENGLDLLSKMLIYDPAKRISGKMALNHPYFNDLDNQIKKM
T2 sequence (P14635 whole entry partner): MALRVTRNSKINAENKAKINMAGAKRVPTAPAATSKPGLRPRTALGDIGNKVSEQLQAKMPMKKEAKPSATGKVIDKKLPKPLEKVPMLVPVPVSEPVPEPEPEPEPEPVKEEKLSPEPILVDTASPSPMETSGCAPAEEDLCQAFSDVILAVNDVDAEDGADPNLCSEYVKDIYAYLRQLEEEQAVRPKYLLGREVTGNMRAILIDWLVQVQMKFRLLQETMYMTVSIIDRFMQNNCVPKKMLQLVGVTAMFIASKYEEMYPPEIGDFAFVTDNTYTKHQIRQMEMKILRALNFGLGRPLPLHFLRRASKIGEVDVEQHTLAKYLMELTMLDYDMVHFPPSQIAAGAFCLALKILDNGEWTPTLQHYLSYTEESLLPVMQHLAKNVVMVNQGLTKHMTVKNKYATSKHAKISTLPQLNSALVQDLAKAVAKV
As to the kind of experiment: Eurofins KinaseProfiler kinase selectivity. The class given is biochemical. The conditions noted are these: compound at 1 μM; ATP 45 μM; read-out: Residual enzyme activity. As to the method:
as §1, §2, §3, §4, §5

Assay [3] concerns the target T3, TNIK(h) (Homo sapiens, UniProt Q9UKE5).
T3 construct: purchased Eurofins (KinaseProfiler platform)
As to the kind of experiment: Eurofins KinaseProfiler kinase selectivity. The conditions noted are these: compound at 1 μM; ATP 70 μM; read-out: Residual enzyme activity. It counts as biochemical. As to the method: as §1, §2, §3, §4, §5

Assay [4] deals with T4, LOK(h) (Homo sapiens, UniProt O94804).
T4 construct: purchased Eurofins (KinaseProfiler platform)
As to the kind of experiment: Eurofins KinaseProfiler kinase selectivity. It counts as biochemical. The conditions noted are these: compound at 1 μM; ATP 120 μM; read-out: Residual enzyme activity. The procedure: as §1, §2, §3, §4, §5

In assay [5] the target is T5, Flt3(h) (Homo sapiens, UniProt P36888).
T5 construct: purchased Eurofins (KinaseProfiler platform)
As to the kind of experiment: Eurofins KinaseProfiler kinase selectivity. It counts as biochemical. The conditions noted are these: compound at 1 μM; ATP 200 μM; read-out: Residual enzyme activity. As to the method: as §1, §2, §3, §4, §5

Assay [6] addresses T6, CDK9/cyclin T1(h) (Homo sapiens, UniProt P50750).
T6 construct: purchased Eurofins (KinaseProfiler platform)
As to the kind of experiment: Eurofins KinaseProfiler kinase selectivity. It counts as biochemical. Conditions: compound at 1 μM; ATP 45 μM; read-out: Residual enzyme activity. As to the method:
as §1, §2, §3, §4, §5

The target in assay [7] is T7, MLK1(h) (Homo sapiens, UniProt P80192).
T7 construct: purchased Eurofins (KinaseProfiler platform)
As to the kind of experiment: Eurofins KinaseProfiler kinase selectivity. The class given is biochemical. Conditions: compound at 1 μM; ATP 45 μM; read-out: Residual enzyme activity. As to the method:
as §1, §2, §3, §4, §5

The target of assay [8] is T8, Rsk1(h) (Homo sapiens, UniProt Q15418).
T8 construct: purchased Eurofins (KinaseProfiler platform)
T8 sequence (Q15418 whole entry): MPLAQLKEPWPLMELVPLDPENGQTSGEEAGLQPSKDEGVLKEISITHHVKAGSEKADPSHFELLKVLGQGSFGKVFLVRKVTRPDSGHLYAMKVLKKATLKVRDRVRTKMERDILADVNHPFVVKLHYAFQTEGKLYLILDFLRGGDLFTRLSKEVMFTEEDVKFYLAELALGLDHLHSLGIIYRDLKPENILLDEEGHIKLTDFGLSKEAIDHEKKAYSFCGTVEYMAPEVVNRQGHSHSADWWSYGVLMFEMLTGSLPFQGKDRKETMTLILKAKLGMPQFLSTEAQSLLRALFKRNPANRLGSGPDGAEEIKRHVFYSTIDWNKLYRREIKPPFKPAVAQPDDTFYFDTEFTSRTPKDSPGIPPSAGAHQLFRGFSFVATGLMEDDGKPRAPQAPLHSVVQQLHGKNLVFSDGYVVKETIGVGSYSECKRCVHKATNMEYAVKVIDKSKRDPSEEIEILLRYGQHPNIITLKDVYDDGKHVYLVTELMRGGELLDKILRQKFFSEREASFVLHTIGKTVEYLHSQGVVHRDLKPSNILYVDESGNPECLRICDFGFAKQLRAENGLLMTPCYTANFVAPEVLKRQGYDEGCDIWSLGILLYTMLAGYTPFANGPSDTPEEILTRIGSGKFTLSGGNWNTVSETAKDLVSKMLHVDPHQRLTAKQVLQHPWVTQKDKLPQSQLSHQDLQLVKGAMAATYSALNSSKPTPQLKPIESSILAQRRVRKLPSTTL
As to the kind of experiment: Eurofins KinaseProfiler kinase selectivity. It counts as biochemical. The conditions noted are these: compound at 1 μM; ATP 45 μM; read-out: Residual enzyme activity. As to the method:
as §1, §2, §3, §4, §5

Assay [9] has as its target T9, Fyn(h) (Homo sapiens, UniProt P06241).
T9 construct: purchased Eurofins (KinaseProfiler platform)
As to the kind of experiment: Eurofins KinaseProfiler kinase selectivity. The class given is biochemical. The conditions noted are these: compound at 1 μM; ATP 70 μM; read-out: Residual enzyme activity. As to the method:
as §1, §2, §3, §4, §5

Assay [10] deals with T10, MST1(h) (Homo sapiens, UniProt Q13043).
T10 construct: purchased Eurofins (KinaseProfiler platform)
T10 sequence (Q13043 whole entry): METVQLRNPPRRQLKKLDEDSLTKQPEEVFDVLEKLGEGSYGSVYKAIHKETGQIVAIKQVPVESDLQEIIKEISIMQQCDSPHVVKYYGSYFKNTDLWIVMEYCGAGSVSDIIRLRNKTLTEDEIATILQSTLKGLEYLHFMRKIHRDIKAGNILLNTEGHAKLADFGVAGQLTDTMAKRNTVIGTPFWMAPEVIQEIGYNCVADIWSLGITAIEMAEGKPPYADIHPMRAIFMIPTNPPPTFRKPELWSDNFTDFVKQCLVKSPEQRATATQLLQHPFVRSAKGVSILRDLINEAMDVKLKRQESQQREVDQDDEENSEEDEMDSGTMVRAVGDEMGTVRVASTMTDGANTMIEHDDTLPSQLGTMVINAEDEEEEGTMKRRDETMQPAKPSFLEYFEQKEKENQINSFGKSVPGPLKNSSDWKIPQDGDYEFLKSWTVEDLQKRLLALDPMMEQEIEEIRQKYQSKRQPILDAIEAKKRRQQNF
As to the kind of experiment: Eurofins KinaseProfiler kinase selectivity. The conditions noted are these: compound at 1 μM; ATP 90 μM; read-out: Residual enzyme activity. The class given is biochemical. As to the method: as §1, §2, §3, §4, §5

In assay [11] the target is T11, CDK2/cyclinA(h) (Homo sapiens, UniProt P24941).
T11 construct: purchased Eurofins (KinaseProfiler platform)
As to the kind of experiment: Eurofins KinaseProfiler kinase selectivity. It counts as biochemical. Conditions: compound at 1 μM; ATP 45 μM; read-out: Residual enzyme activity. As to the method: as §1, §2, §3, §4, §5

Assay [12] has as its target T12, KDR(h) (Homo sapiens, UniProt P35968).
T12 construct: purchased Eurofins (KinaseProfiler platform)
As to the kind of experiment: Eurofins KinaseProfiler kinase selectivity. Conditions: compound at 1 μM; ATP 90 μM; read-out: Residual enzyme activity. It counts as biochemical. The procedure:
as §1, §2, §3, §4, §5

In assay [13] the target is T13, Abl(h) (Homo sapiens, UniProt P00519).
T13 construct: purchased Eurofins (KinaseProfiler platform)
As to the kind of experiment: Eurofins KinaseProfiler kinase selectivity. The class given is biochemical. The conditions noted are these: compound at 1 μM; ATP 45 μM; read-out: Residual enzyme activity. The procedure:
as §1, §2, §3, §4, §5

Assay [14] deals with T14, GSK3β(h) (Homo sapiens, UniProt P49841).
T14 construct: purchased Eurofins (KinaseProfiler platform)
T14 sequence (P49841 whole entry): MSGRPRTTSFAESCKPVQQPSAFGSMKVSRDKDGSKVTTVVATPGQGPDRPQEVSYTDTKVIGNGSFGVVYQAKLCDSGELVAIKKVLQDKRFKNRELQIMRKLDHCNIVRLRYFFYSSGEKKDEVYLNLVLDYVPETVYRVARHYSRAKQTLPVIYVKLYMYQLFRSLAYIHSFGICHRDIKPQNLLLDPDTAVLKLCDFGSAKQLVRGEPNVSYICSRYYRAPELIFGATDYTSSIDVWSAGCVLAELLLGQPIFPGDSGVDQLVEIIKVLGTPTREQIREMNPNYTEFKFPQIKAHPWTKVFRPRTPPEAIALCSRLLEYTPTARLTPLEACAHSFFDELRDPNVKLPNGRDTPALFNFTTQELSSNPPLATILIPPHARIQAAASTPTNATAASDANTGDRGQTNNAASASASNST
As to the kind of experiment: Eurofins KinaseProfiler kinase selectivity. The class given is biochemical. The conditions noted are these: compound at 1 μM; ATP 15 μM; read-out: Residual enzyme activity. As to the method: as §1, §2, §3, §4, §5

Assay [15] addresses T15, ALK(h) (Homo sapiens, UniProt Q9UM73).
T15 construct: purchased Eurofins (KinaseProfiler platform)
As to the kind of experiment: Eurofins KinaseProfiler kinase selectivity. The class given is biochemical. The conditions noted are these: compound at 1 μM; ATP 200 μM; read-out: Residual enzyme activity. The procedure:
as §1, §2, §3, §4, §5

Assay [16] relates to human peripheral blood mononuclear cells. As to the kind of experiment: Proliferation inhibition of peripheral blood mononuclear cells (flow cytometry). It counts as cell-based. The conditions noted are these: PBMC, PHA-M 5 μg/mL stimulation, 48 hours. As to the method:
Flow cytometry was used to detect cell proliferation of human peripheral blood mononuclear cells.
• Cell complete medium: 445 mL of RPMI1640 cell culture+50 mL of fetal bovine serum+5 mL of double antibody • Buffer 1: 9.9 mL of phosphate buffer+0.1 mL of 10% bovine serum protein • Buffer 2: 10 mL of fetal bovine serum+490 mL of phosphate buffer 3.2 Cell Thawing • 3.2.1 20 mL of cell complete medium was added to a 50 mL of centrifuge tube and pre-heated in a 37° C. water bath for 5 minutes; • 3.2.2 the cell cryotubes were removed from the liquid nitrogen storage tank and placed on dry ice for 5-10 minutes to allow the liquid nitrogen to evaporate fully; • 3.2.3 the cell cryotubes were clamped with forceps and placed in the water bath, and shaken gently to thaw the frozen cells quickly; • 3.2.4 the thawed cells were transferred to the pre-heated cell complete medium with a pipette, centrifuged at 350 g for 5 min, then the supernatant was discarded, and the cells was resuspended by adding 10 mL of phosphate buffer; • 3.2.5 counting by cell counter, and cell viability and cell count were recorded. 3.3 Cell Labeling • 3.3.1 Cell proliferation labeling solution (CellTrace™ Violet, 1:1000 dilution) was prepared • 3.3.2 the above mixture was centrifuged at 350 g for 5 minutes, and the supernatant was discarded, then the cells (20×10^6/mL) were resuspended by adding Buffer 1, and the resuspended cells were gently blown by pipette, and an equal volume of cell proliferation labeling solution (prepared in 3.3.1) was added, and gently blown well by pipette; • 3.3.3 incubating in a 5% CO2, 37° C. cell incubator for 18 minutes; • 3.3.4 the 5-fold volume of cell complete medium was added and leaved at room temperature for 5 minutes to terminate the staining reaction; • 3.3.5 the above mixture was centrifuged at 350 g for 5 minutes, and the supernatant was discarded, then the cells were resuspended by adding 10 mL of cell complete medium, counted by cell counter, and cell viability and cell count were recorded; • 3.3.6 the above mixture was centrifuged at 350 g for 5 minutes, and the supernatant was discarded, then the corresponding volume of cell complete medium was added according to the cell counting results, and the density of the resuspended cells was 2×10^6/mL and was to be used. 3.4 Cell Proliferation Stimulation • 3.4.1 50 μL/well prepared cell suspension (1×10^5 cells/well), 50 μL of 4×PHA-M (the final concentration is 5 μg/mL), 50 μL of 4×test compound, 50 μL of cell complete medium were added to the wells of 96-well cell culture plate, and the corresponding control group was set up; (total volume of the reaction system is 200 μL) • 3.4.2 the cell culture plate was placed and incubated in a 5% CO2, 37° C. cell incubator for 48 hours. 3.5 Cell Proliferation Detection • 3.5.1 the above mixture was centrifuged at 350 g for 5 minutes and the supernatant was transferred to a new cell culture plate and stored at −80° C.; • 3.5.2 200 μL of Buffer 2 was add to the wells of the culture plate, and the above mixture was centrifuged at 350 g and the supernatant was discarded; • 3.5.3 cell dead or living staining solution (7-AAD, 1:100 dilution) was prepared with Buffer 2; • 3.5.4 100 μL/well of dead or living staining solution was added, and gently blown and mixed well by pipette, and stained at room temperature for 10 min; • 3.5.5 cell proliferation was detected by flow cytometry analyzer and analyzed by Flowjo software.
Background: A flow cytometer gives signals particle by particle.

Structures are written as SMILES.

T15 sequence (Q9UM73 19-1620): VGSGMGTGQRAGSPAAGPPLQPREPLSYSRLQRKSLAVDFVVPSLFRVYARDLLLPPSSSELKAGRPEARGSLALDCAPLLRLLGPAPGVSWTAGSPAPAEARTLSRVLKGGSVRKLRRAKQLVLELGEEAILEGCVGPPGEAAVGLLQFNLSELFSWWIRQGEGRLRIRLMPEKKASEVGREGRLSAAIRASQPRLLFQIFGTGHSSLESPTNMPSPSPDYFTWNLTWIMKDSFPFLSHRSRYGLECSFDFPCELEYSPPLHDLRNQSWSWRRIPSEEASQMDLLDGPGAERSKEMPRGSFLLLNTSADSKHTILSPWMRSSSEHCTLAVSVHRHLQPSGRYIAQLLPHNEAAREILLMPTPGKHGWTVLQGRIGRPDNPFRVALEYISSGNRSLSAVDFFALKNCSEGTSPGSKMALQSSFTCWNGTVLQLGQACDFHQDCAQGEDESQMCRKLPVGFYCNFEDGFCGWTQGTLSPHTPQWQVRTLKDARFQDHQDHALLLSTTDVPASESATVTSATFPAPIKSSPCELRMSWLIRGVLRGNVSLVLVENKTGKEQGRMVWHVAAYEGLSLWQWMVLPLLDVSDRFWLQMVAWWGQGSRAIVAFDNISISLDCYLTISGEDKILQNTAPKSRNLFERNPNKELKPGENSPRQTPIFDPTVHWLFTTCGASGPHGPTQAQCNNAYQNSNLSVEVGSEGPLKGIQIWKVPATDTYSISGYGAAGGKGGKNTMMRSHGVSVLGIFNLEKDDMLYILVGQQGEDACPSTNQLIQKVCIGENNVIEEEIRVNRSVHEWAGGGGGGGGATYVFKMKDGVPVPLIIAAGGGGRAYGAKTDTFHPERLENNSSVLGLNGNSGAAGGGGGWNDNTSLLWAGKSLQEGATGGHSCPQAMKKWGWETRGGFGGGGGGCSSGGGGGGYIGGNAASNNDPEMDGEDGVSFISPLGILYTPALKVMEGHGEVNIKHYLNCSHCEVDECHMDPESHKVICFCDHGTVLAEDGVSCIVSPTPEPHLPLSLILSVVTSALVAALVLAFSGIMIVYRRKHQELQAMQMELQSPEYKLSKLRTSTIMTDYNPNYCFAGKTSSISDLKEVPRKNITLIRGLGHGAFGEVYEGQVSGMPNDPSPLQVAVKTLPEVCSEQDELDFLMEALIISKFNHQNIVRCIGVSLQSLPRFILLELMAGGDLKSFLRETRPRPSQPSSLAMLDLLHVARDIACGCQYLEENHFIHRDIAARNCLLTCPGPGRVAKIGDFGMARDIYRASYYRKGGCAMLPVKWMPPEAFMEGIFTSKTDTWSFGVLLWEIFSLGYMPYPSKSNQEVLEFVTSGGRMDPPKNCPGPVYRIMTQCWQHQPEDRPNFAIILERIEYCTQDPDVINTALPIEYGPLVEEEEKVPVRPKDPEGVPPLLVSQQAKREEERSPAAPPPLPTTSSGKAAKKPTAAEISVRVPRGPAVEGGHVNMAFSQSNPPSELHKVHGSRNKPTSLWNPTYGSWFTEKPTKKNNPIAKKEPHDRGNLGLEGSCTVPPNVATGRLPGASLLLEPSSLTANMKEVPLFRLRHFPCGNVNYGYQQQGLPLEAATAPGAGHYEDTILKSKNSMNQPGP
T9 sequence (P06241 whole entry): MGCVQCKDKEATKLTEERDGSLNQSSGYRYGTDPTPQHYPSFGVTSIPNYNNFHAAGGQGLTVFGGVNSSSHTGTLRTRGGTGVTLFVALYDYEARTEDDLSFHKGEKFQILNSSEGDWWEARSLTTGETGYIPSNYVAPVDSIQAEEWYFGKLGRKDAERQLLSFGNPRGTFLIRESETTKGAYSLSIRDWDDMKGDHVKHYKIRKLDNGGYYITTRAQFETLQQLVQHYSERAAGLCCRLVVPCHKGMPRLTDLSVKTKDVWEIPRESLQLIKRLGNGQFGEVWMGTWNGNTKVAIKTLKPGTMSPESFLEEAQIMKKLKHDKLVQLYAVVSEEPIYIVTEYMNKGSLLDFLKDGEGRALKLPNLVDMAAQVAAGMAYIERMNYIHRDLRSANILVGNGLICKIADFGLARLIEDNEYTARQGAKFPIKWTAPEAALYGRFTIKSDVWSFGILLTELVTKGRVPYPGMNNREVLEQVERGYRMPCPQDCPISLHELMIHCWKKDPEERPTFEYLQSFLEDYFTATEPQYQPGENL

Regarding `CCn1c(CO)nn(-c2cc(O[C@@H](C)C(F)(F)F)c(/C(F)=C/c3ncccc3Cl)cc2F)c1=O` [Compound 5], the remaining activity at 1 µM in assay [1] amounted to 81%; in assay [2], 91%; in [3], 84%; in [4], 108%; in assay [5] it was 84%; in [6], 95%. The remaining activity at 1 µM in assay [7] amounted to 111%; in assay [8], 88%; in assay [9] it was 121%; in assay [10] it was 96%; in assay [11], 72%; in [12] it was 90%. For the same molecule, the remaining activity at 1 µM in assay [13] came out at 88%; in assay [14] it was 126%; in [15], 94%. For the same molecule, the concentration for half-maximal inhibition (IC50) in assay [16] worked out at 0.8 nM.

For orientation: IC50 means the midpoint of a concentration-inhibition curve. Read a low IC50 as greater potency in that assay.
